The text below walks through data of patent US20110256121A1, “METHODS AND KITS FOR DIAGNOSING OR MONITORING AUTOIMMUNE AND CHRONIC INFLAMMATORY DISEASES” (THE REGENTS OF THE UNIVERSITY OF MICHIGAN, priority 2008, published 2011).

Common to all, as to assay type: cell-based, human
One test has as its system KIR2DL2. The test can be described thus: KIR2DL2 expression on T cells by flow cytometry. Here is the method: T cell purification and culture. Peripheral blood mononuclear cells (PBMC) were isolated from healthy donors by density gradient centrifugation, stimulated for 18 hours with 1 μg/mlphytohemagglutinin (PHA) (Murex, Norcross, Ga.), then treated or not with 5 μm 5-azacytidine (5-azaC, Sigma, St. Louis, Mo.) for 72 hours as described (6). Total T cells, CD4^+ T cells or CD8′ T cells then were purified using the pan T cell isolation kit II or the CD4^+ and CD8^+ T cell isolation kit II from Miltenyi (Auburn, Calif.). T cells were typically >94% CD3^+ by flow cytometry. Jurkat cells (E6-1) were maintained in culture as described (11). This protocol was approved by the University of Michigan Institutional Review Board.
Flow Cytometric Analysis. The following monoclonal antibodies were used: CYC-anti-CD3, FITC-anti-CD8, CYC-anti-CD4, FITC-anti-CD28, CYC-mouse IgG1 and FITC-mouse-IgG1 (all from BD PharMingen, San Diego, Calif.). Anti-CD158b1/b2, j-PE (GL183, reactive with KIR 2DL2/2DL3/2DS2) was obtained from Beckman Coulter Immunotech (Buckinghamshire, UK), anti-CD158d-PE (anti-KIR2DL4) from R&D Systems (Minneapolis, Minn.), and PE-mouse-IgG2A from Abcam (Cambridge Mass.). Cell staining and fixation were performed as described (2; 6), and cells analyzed using a FACSCalibur flow cytometer (BD Biosciences, Franklin Lakes, N.J.).
Confirmation at the protein and mRNA levels. The effect of 5-azaC on KIR2DL2 and KIR2DL4 was confirmed in CD4+ and CD8+ T cells at the protein and mRNA levels. […] 5-azaC induces KIR2DL2 expression on both subsets, but a greater increase is seen on the CD8+ subset. FIG. 25b summarizes the effect of 5-azaC on KIR2DL2 expression in CD4+ and CD8+ T cells from healthy subjects. […] Since KIR is primarily expressed on CD28− T cells (24), KIR2DL2 expression was compared on CD28+ and CD28− T cells with and without 5-azaC treatment. KIR2DL2 expression increased on the CD28+ subset relative to untreated cells (1.9±0.2% vs 0.1±0.1%, 5-azaC treated vs untreated, n=3, p<0.001), but not on the CD28− subset (0.27±0.13% vs 0.30±0.18%, treated vs untreated, n=3).
On the technique in general: Flow cytometry measures light scatter and fluorescence of single cells or particles in a stream.

The test system of another test is KIR. The test can be described thus: KIR expression on 5-azaC treated T cells, anti-KIR antibody cocktail, flow cytometry. From the text:
Antibodies: Unconjugated and PE-conjugated anti-CD158d (KIR2DL4) were purchased from R&D Systems, Minneapolis, Minn. and unconjugated and PE-conjugated anti-NKB1 (KIR3DL1), anti-perforin antibodies and isotype matched control antibodies were obtained from BD PharMingen, San Diego Calif. PE-conjugated anti-CD158i (KIR2DS4) was obtained from Beckman Coulter (Fullerton Calif.). Anti-CD4-Cy5, anti-CD8-FITC, and PE-conjugated antibodies to and KIR2DS2 (anti-CD158b) were obtained from BD PharMingen, KIR2DL1/2DS2 (CD158a/h) and KIR3DL1/3DS1 (CD158e1/e2) from Beckman Coulter, and 2DL1/2DL3/2DS2 (anti-CD158 b1/b2/j (GL183) was purchased from R&D Systems. Minneapolis, Minn.). Ten microliters of each PE-conjugated anti-KIR antibody were mixed to form a “cocktail” used to stain the cells. […] Following staining, the cells were fixed in 1% paraformaldehyde and kept at 4° C. until analyzed. […]
CD4+ and CD8+ T cells demethylate and express KIR genes following treatment with the DNA methylation inhibitor 5-azaC. PBMC from 11 healthy subjects were stimulated with PHA, treated with 5-azaC, then KIR expression was measured on untreated and treated CD4+ and CD8+ cells using a “cocktail” of anti-KIR antibodies and flow cytometry as described in Materials and Methods above.

Another test relates to Sp1. The test can be described thus: Sp1 quantitation in nuclear extracts of T cells. Conditions: PHA-stimulated T cells, 5-azaC 72 h.

On to `Nc1ncn([C@@H]2O[C@H](CO)[C@@H](O)[C@H]2O)c(=O)n1` [5-azaC, 5-azacytidine], for which the “KIR2DL2 expression on CD4+ and CD8+ T cells” value with KIR2DL2 (5-azaC 72 h, p<0.001 for each subset) is given as “increases KIR2DL2 expression on both”. The “CD4 or CD8 expression” value in the test with KIR2DL2 (5-azaC treated T cells) is recorded as “no significant effect”. The “KIR2DL2 expression on the CD28+ subset” value with KIR2DL2 (5-azaC treated, untreated 0.1±0.1%, n=3, p<0.001) stood at 1.9±0.2%. Also, in the test on KIR2DL2 (5-azaC treated, untreated 0.30±0.18%, n=3), the “KIR2DL2 expression on the CD28− subset” value is given as 0.27±0.13%. In addition, the “expression of additional KIR proteins on T cells” value in the test with KIR is “induced expression of additional KIR proteins including KIR3DL1, KIR2DS4 and KIR2DL2/2DL3”. For the same molecule, the “KIR expression on CD4+ and CD8+ T cells” value with KIR (11 healthy subjects, PHA, anti-KIR cocktail) is given as “significantly increases KIR expression”. In addition, the “activated Sp1 levels” value in the test on Sp1 was “increases activated Sp1 levels”.
